This is an account of results in patent US6022969A, “Compositions and methods for treating mast-cell mediated conditions” (AXYS Pharmaceuticals, Inc., priority 1995, dated 2000).

Assay [1] has as its system antigen-challenged sheep. Description: Allergic sheep model of asthma: Specific Lung Resistance (SRL) after antigen challenge. Type of assay: in vivo. The protocol: (§1) The initial asthmatic response can be evaluated in guinea pigs, and dogs, and particularly, with a basenji-greyhound cross strain which develops nonspecific airway hyperresponsiveness to numerous nonallergenic substances, such as methacholine and citric acid. […] In dual responding animals, the initial asthmatic response (IAR) is followed by a late asthmatic response (LAR) at 6-8 hours post-exposure.
The allergic sheep model (see below) was used to evaluate the potential antiasthmatic effects of the compounds of the present invention.
(§2) The allergic sheep model of asthma was employed for he in vivo evaluation of the compounds of the invention as antiasthmatics. These methods have been published previously (see Abraham et al. (1983) Am. Rev. Respir. Dis. 128:839-844; Allegra et al. (1983) J. Appl. Physiol. 55:726-730; Russi et al. (1985) J. Appl. Physiol. 59:1416-1422; Soler et al. (1989) J. Appl. Physiol. 67:406-413. Each sheep serves as its own control. Body weights for these animals ranged from 20-50 kilograms.
The peak early response was taken as the average of the maximum values occurring immediately post-challenge. Peak late responses were calculated by averaging the maximum response values obtained for each animal within the 6-8 hour time period. This approach is conservative and eliminates the possible reduction in the late response due simply to averaging.
Three doses of the compound (2 mg in 10 mL water) were administered to sheep through an intergastric tube 1 hr before challenge, 4 hours post-challenge, and 24 hours post-challenge.

The test system of the next assay is tryptase. Description: In vitro tryptase inhibition assay (hydrolysis of tosyl-Gly-Pro-Lys-p-nitroanilide). Type of assay: biochemical, human. Particulars: for Ki: tosyl-Gly-Pro-Lys-p-nitroanilide 0.5 mM, pH 8.2, 1 h pre-incubation, room temperature. The protocol:
The compounds to be assayed (approximately 1 mg) were dissolved in 200 μL dimethylsulfoxide (DMSO) and diluted 1:10 into buffer containing 50 millimolar (mM) Tris-HCl (pH 8.2), 100 mM sodium chloride, and 0.05% polyoxyethylenesorbitan monolaurate (Tween-20®, available from Sigma, St. Louis, Mo.). Seven additional threefold dilutions were made from the initial dilution into the same buffer supplemented with 10% DMSO. Aliquots (50 microliters, μL) from each of the eight dilutions in the series were transferred to individual wells in a 96-well U-bottom microtiter plate. 25 μL of a stock solution of tryptase was added to each well and the samples were mixed and incubated for one hour at room temperature (tryptase was purified from human lung and skin tissue preparations, HMC-1 (human mast cell line) and also obtained from commercial sources (ICN Biomedicals, Irvine, Calif.; Athens Research & Technology, Athens, Ga.)). […] The tryptase solution was prepared by placing 60 μg/mL of tryptase into solution with 10 mM MES (2-[N-Morpholino]ethane sulfonic acid) containing 2 mM CaCl2, 20% glycerol and 50 μg/mL heparin. The enzyme reaction was initiated with the addition of the synthetic tripeptide substrate, tosyl-Gly-Pro-Lys-p-nitroanilide (available from Sigma, 25 μL; 0.5 mM final concentration).
However, Ki ' varies with the enzyme concentration used in the enzyme assay. […] The y-intercept of a replot of IC50 (ordinate) versus tryptase concentration (abscissa) produces a value for Ki '.
The inhibition constants (Ki ', micromolar (μM)) were determined for the compounds of the present invention.

The test system of assay [2] is antigen-challenged sheep. Nature of the assay: Allergic sheep model of asthma: airway hyperresponsiveness to carbachol (PC400) 24 hours after antigen challenge. Type of assay: in vivo. The protocol: as §1, §2
Twenty-four hours after antigen challenge in both the control and drug trial, the sheep developed airway hyperresponsiveness. Airway hyperresponsiveness is expressed as PC400, the concentration of carbachol that causes a 400% increase in SRL; therefore, a decrease in PC400 indicates hyperresponsiveness. […] The number of breath units fell to 12 for those animals in the control group.

For `N=C(N)Nc1ccc(CNC(=O)N2CCN(C(=O)O[C@H]3CCC[C@@H](OC(=O)N4CCN(C(=O)NCc5ccc(NC(=N)N)cc5)CC4)CCC3)CC2)cc1` [Compound 3, cis-1,5-Cyclooctylene bis[4-(4-guanidinobenzylcarbamoyl)-1-piperazinecarboxylate]], the “early and late responses to antigen challenge, SRL (aerosol)” value in the assay with antigen-challenged sheep [1] (Compound 3: aerosol 50 μg 0.5 h before, 4 h and 24 h after challenge, n=3 (FIG. 1), Compound 2: aerosol 3 x 0.1 mg (FIG. 5)) is “significant attenuation of the early and late responses to the antigen challenge”. Moreover, the “early and late phase response to antigen challenge, SRL (aerosol pretreatment)” value in the assay with antigen-challenged sheep [1] (aerosol predosing 0.5 mg/day x 3 days plus 0.5 mg 0.5 h before challenge (FIG. 7)) was “significant attenuation of early and late phase response to antigen challenge”. The “early phase SRL (oral)” value with antigen-challenged sheep [1] (intragastric 2 mg in 10 mL water 1 h before, 4 h and 24 h post-challenge, untreated about 250) is “about 175”. Further, in the assay on antigen-challenged sheep [1] (intragastric 2 mg in 10 mL water 1 h before, 4 h and 24 h post-challenge, untreated over 200), the “late phase SRL (oral)” value is listed as “about 50”. Further, the “anti-asthmatic properties when delivered orally” value in the assay on antigen-challenged sheep [1] (oral, 3 x 2 mg) is recorded as “significant anti-asthmatic properties when delivered orally”. Further, in the assay with tryptase (apparent affinity comparable to enzyme concentration), the “type of tryptase inhibition” value is listed as “tight binding inhibitor”. Also, in the assay with antigen-challenged sheep [2] (aerosol 3 x 50 μg (FIG. 2)), the “airway function in antigen challenged sheep (aerosol)” value is “significant improvement in airway function”. The “airway hyperresponsiveness, PC400 (aerosol)” value in the assay with antigen-challenged sheep [2] (aerosol 3 x 50 μg, 24 h after challenge, baseline 32, control 12 (FIG. 2)) was approximately 32 breath units. Moreover, in the assay with antigen-challenged sheep [2] (aerosol predosing 0.5 mg/day x 3 days plus 0.5 mg 0.5 h before challenge (FIG. 8)), the “airway function / PC400 (aerosol pretreatment)” value is reported as “significant improvement in airway function”. The “onset of hyperresponsiveness (PC400, aerosol), result in words” value in the assay on antigen-challenged sheep [2] (aerosol, 24 h after antigen challenge, Compound 3 3 x 50 μg (FIG. 2), Compound 2 3 x 0.1 mg (FIG. 6)) is listed as “block the onset of hyperresponsiveness”.

The compound `N=C(N)Nc1ccc(CNC(=O)N2CCN(C(=O)O[C@H]3CCC[C@@H](OC(=O)N4CCN(C(=O)NC[C@H]5CC[C@H](CN)CC5)CC4)CCC3)CC2)cc1` [Compound 52] displayed a Ki on tryptase of 0.48 nM.

`N=C(N)Nc1ccc(CNC(=O)N2CCN(C(=O)O[C@H]3CCC[C@@H](OC(=O)N4CCN(C(=O)NCCCN)CC4)CCC3)CC2)cc1` [Compound 53, cis-5-[4-(3-aminopropylcarbamoyl)piperazin-1-ylformyloxy]cyclooctyl 4-(4-guanidinobenzylcarbamoyl)-1-piperazinecarboxylate] had a Ki on tryptase of 44 nM.

As for `N=C(N)Nc1ccc(CNC(=O)N2CCN(C(=O)O[C@H]3CCC[C@@H](OC(=O)N4CCN(C(=O)NCCCCCCN)CC4)CCC3)CC2)cc1` [Compound 54, cis-5-[4-(6-aminohexylcarbamoyl)piperazin-1-ylformyloxy]cyclooctyl 4-(4-guanidinobenzylcarbamoyl)-1-piperazinecarboxylate], the Ki on tryptase was determined as 20 nM.

On tryptase, “cis-1,5-tetracyclo[3.3.1.1^3,7 ]decylenedimethylene bis[4-(4-guanidinobenzylcarbamoyl)-1-piperazinecarboxaldehyde] [Compound 32]” yielded a Ki of 12.2 nM.

“trans-1,4-cyclohexylene bis[4-(4-guanidinobenzylcarbamoyl)-1-piperazinecarboxaldehyde] [Compound 21]”: the Ki at tryptase was 60.9 nM.
